Measurements from patent US10988444B2, “Antimicrobial compounds” (NEWSOUTH INNOVATIONS PTY LIMITED, priority 2016, dated 2021).
Values after ≈ are worked out from the molar mass of the structure shown.

Assays:
[1] = test system: E. coli; experiment: Minimal inhibitory concentration (MIC) determination, Example 1; type: cell-based; settings: 24 h, MHB, 37° C.; for MIC: Escherichia coli, read-out: Minimum inhibitory concentration (MIC) E. coli
Method: (§1) The antibacterial activity of the compounds was determined by the determination of minimal inhibitory concentration (MIC) by following the previously published protocol (see Nizalapur, S.; Ho, K. K.; Kimyon, Ö.; Yee, E.; Berry, T.; Manefield, M.; Cranfield, C. G.; Willcox, M.; Black, D. S.; Kumar, N. Org. Biomol. Chem. 2016, 14, 3623). The compounds to be tested were dissolved and diluted in autoclaved Millipore water. A single colony of bacteria was cultured overnight in TSB at 37° C. The resulting bacteria were collected by centrifugation and re-suspended in the same volume of MHB twice. Optical density (OD) of the resulting culture was adjusted to 0.1 at 600 nm (10^8 CFU/mL) in MHB, and the adjusted culture was further diluted to […] in MHB. Then, 100 μL of the bacterial solution was added to wells of a 96-well plate containing 100 μL of serially diluted compound. Two controls were also prepared: one containing 100 μL of MHB media and 100 μL sterile water, and the other containing 100 μL of bacterial solution and 100 μL sterile water. […] The MIC value was determined as the lowest concentration of compound that inhibited the complete growth of the bacteria (i.e. OD similar to that of the control having no bacteria). Each experiment was performed in triplicate and was repeated in three independent experiments.
(§2) The results of the MIC assay are given below in Table 1.

[2] = test system: S. aureus; experiment: as above; type: cell-based; settings: MHB, 37° C., 24 h; for MIC: Staphylococcus aureus, read-out: Minimum inhibitory concentration (MIC) S. aureus
Method: as §1, §2

[3] = test system: S. marcescens; experiment: Biofilm inhibition assay (inhibition of biofilm formation), crystal violet staining; type: cell-based; settings: Serratia marcescens, 24 h
Method: (§3) Bacterial cultures were grown in TSB media for overnight at 37° C. with shaking at 150 r.p.m. Cultures were diluted (1:20) in YPD medium and 200 μl aliquots were dispensed to flat bottom 96-well plate wells (Sarstedt Australia). Cultures were supplemented with varying concentrations of synthetic compounds dissolved in water. For no-established biofilm assay, cultures were grown in 96-well plate wells overnight along with synthetic compounds. Control cultures were supplemented with an equal amount of water. Plates were sealed with self-adhesive microplate sealers (TopSeal-A, PerkinElmer) to allow air diffusion and to prevent condensation. Cultures were incubated overnight at 37° C. with shaking at 150 r.p.m. Biofilms adhered on polystyrene substratum were quantified by crystal violet staining as described previously (see Wiegand, I.; Hilpert, K.; Hancock, R. E. W. Nat. Protocols 2008, 3 (2), 163-175). All cultures were prepared in triplicates. Error bars represent the standard error of three independent experiments (n=3).
(§4) The biofilm disruption activities of the compounds were investigated using crystal violet staining according to a previously published protocol (G. A. O'Toole, J Vis Exp, 2011, (47), pii: 2437, DOI: 10.3791/2437, 2437). The ability of compounds (34-38, 51-56, 61, 62, 65 and 66) to disrupt the established biofilms of the Gram-positive bacteria S. aureus and the Gram-negative bacteria Pseudomonas aeruginosa, Serratia marcescens and E. coli, was determined at a concentration of 250 μM. In this assay, bacterial cultures were grown on a polystyrene substratum overnight prior to treatment with the compounds. In addition, the ability of these compounds to inhibit the formation of biofilms of P. aeruginosa and S. marcescens was also investigated at 250 μM, whereby the bacterial cultures were grown in the presence of test compounds.

[4] = test system: E. coli; experiment: Biofilm disruption assay, established biofilms, crystal violet staining; type: cell-based; settings: 250 μM, 24 h treatment
Method: as §3, with “For pre-established” for “For no-established”, “overnight prior to supplementation” for “overnight along”, “of DMSO.” for “of water.”
as §4

[5] = test system: S. aureus (SA38); experiment: Minimal inhibitory concentration (MIC) assay, broth micro dilution, Example 3; type: cell-based; settings: Staphylococcus aureus; SA38, MHB, 37° C., 18-24 hours; read-out: Minimum inhibitory concentration (MIC) S. aureus
Method: (§5) Compounds 95, 96, 106, 107, 109, 117 were assessed by determining their minimum inhibitory concentration (MIC) according through broth micro dilution assay using the procedure described by M. A. Wikler, Methods for dilution antimicrobial susceptibility tests for bacteria that grow aerobically: approved standard, Clinical and Laboratory Standards Institute, 2006. Briefly, bacteria were grown to mid-log phase in Muller Hinton broth (MHB) with shaking at 120 rpm and incubated at 37° C. for 18-24 hours. Following incubation, bacteria were washed three times in PBS pH 7.4 at 3500 g for 10 minutes. After washing, bacteria were diluted with fresh MHB. The turbidity of the bacterial suspensions were adjusted so that OD660 nm was 0.1, which gave 1×10^8 cfu/ml, and then further diluted to achieve 1-2×10^5 cfu/ml as a final bacterial concentration. Each compound was diluted (250-3.9 μM) through two-fold dilution. Wells in microtitre plates were loaded with 100 μl of inoculum containing 1-2×10^5 cfu/ml bacteria. Wells without any compound and containing only bacteria were used as a negative control (i.e. no inhibition of growth). Wells without bacteria but containing compound acted as another control. The microtitre plate was wrapped with paraffin to prevent evaporation and incubated with shaking at 120 rpm and 37° C. for 18-24 hours. After incubation, spectrophotometric reading was taken. The well without any bacterial growth and showing zero spectrophotometric reading regarded as mic of the compounds.

[6] = test system: E. coli (K12); experiment: as above; type: cell-based; settings: Escherichia coli; K12, MHB, 37° C., 18-24 hours; read-out: Minimum inhibitory concentration (MIC) E. coli
Method: as §5

[7] = test system: S. aureus; experiment: Biofilm disruption assay, established biofilms, crystal violet staining; type: cell-based; settings: 250 μM, 24 h treatment
Method: as §3, with “For pre-established” for “For no-established”, “overnight prior to supplementation” for “overnight along”, “of DMSO.” for “of water.”
as §4

[8] = test system: S. marcescens; experiment: as above; type: cell-based, Serratia marcescens; settings: 250 μM, 24 h treatment
Method: as §3, with “For pre-established” for “For no-established”, “overnight prior to supplementation” for “overnight along”, “of DMSO.” for “of water.”
as §4

[9] = test system: Pseudomonas aeruginosa (PAO1); experiment: as above; type: cell-based; settings: 250 μM, 24 h treatment
Method: as §3, with “For pre-established” for “For no-established”, “overnight prior to supplementation” for “overnight along”, “of DMSO.” for “of water.”
as §4

| Molecule | MIC [1] [µg/mL] | MIC [2] [µg/mL] | MIC [5] [µM] | MIC [6] [µM] | other results |
| --- | --- | --- | --- | --- | --- |
| Cl.N=C(N)NCCCNC(=O)C(=O)c1cc(F)ccc1NC(=O)c1ccc2ccccc2c1 [Compound 37, N-(4-Fluoro-2-(2-((3-guanidinopropyl)amino)-2-oxoacetyl)phenyl)-2-naphthamide hydrochloride] | 59 | 30 | – | – | inhibition at 250 µM [3]: 74%; disruption of established biofilms of E. coli [4]: 53% |
| NCCNC(=O)[C@H](Cc1c[nH]c2ccccc12)NC(=O)c1cc(F)ccc1NC(=O)c1ccc2ccccc2c1 [Compound 96, (S)—N-(2-((1-((2-Aminoethyl)amino)-3-(1H-indol-3-yl)-1-oxopropan-2-yl)carbamoyl)-4-fluorophenyl)-2-naphthamide] | – | – | 7.8 (≈ 4.19 µg/mL) | 15.6 (≈ 8.39 µg/mL) | – |
| CN(C)CCNC(=O)[C@H](Cc1c[nH]c2ccccc12)NC(=O)c1cc(Br)ccc1NC(=O)c1ccc2ccccc2c1 [Compound 117, (S)-2-(2-(2-(2-Naphthamido)-5-bromobenzamido)-3-(1H-indol-3-yl)propanamido)-N,N-dimethylethan-1-aminium chloride] | – | – | 7.8 | 125 | – |
| Cl.N=C(N)NCCCC[C@H](NC(=O)C(=O)c1cc(Br)ccc1NC(=O)c1ccc2ccccc2c1)C(=O)O [Compound 52, N^2-(2-(2-(2-naphthamido)-5-bromophenyl)-2-oxoacetyl)-N^6-carbamimidoyllysine hydrochloride] | 77 | 77 | – | – | inhibition at 250 µM [3]: 72%; disruption of established biofilms of S. aureus [7]: 42% |
| COc1ccc(NC(=O)c2ccc3ccccc3c2)c(C(=O)N[C@@H](Cc2c[nH]c3ccccc23)C(=O)NCCNC(=N)N)c1 [Compound 109, (S)—N-(2-((1-((2-Guanidinoethyl)amino)-3-(1H-indol-3-yl)-1-oxopropan-2-yl)carbamoyl)-4-methoxyphenyl)-2-naphthamide] | – | – | 7.8 (≈ 4.62 µg/mL) | 62.5 (≈ 37 µg/mL) | – |
| N=C(N)NCCNC(=O)[C@H](Cc1c[nH]c2ccccc12)NC(=O)c1cc(Br)ccc1NC(=O)c1ccc2ccccc2c1 [Compound 106, (S)—N-(4-Bromo-2-((1-((2-guanidinoethyl)amino)-3-(1H-indol-3-yl)-1-oxopropan-2-yl)carbamoyl)phenyl)-2-naphthamide] | – | – | 3.9 (≈ 2.5 µg/mL) | 15.6 (≈ 9.99 µg/mL) | – |
| Cl.N=C(N)NCCCC[C@H](NC(=O)C(=O)c1ccccc1NC(=O)c1ccc2ccccc2c1)C(=O)O [Compound 51, N^2-(2-(2-(2-naphthamido)phenyl)-2-oxoacetyl)-N^6-carbamimidoyllysine hydrochloride] | 66 | 53 | – | – | disruption of established biofilms of S. marcescens [8]: 48% |
| Cc1ccc(NC(=O)c2ccc3ccccc3c2)c(C(=O)C(=O)N[C@@H](CCCCNC(=N)N)C(=O)O)c1.Cl [Compound 54, N^2-(2-(2-(2-naphthamido)-5-methylphenyl)-2-oxoacetyl)-N^6-carbamimidoyllysine hydrochloride] | 68 | 54 | – | – | Minimum inhibitory concentration (MIC) E. coli ([1]; hydrochloride): 69 µg/mL; disruption of established biofilms of P. aeruginosa [9]: 46% |
| Gentamicin [reference compound] | – | – | – | – | Minimum inhibitory concentration (MIC) E. coli [1]: 2.5 µg/mL; Minimum inhibitory concentration (MIC) S. aureus [2]: <0.6 µg/mL |
| CC(=O)C(CCCCNC(=N)N)NC(=O)C(=O)c1ccccc1NC(=O)c1ccc2ccccc2c1.Cl (stereo not drawn) [Compound 55, N-(2-(2-((7-guanidino-2-oxoheptan-3-yl)amino)-2-oxoacetyl)phenyl)-2-naphthamide hydrochloride] | 17 | > 140 | – | – | – |
| COC(=O)C(CCCN)NC(=O)C(CCCCN)NC(=O)C(=O)c1ccccc1NC(=O)c1ccc2ccccc2c1.Cl.Cl (stereo not drawn) [Compound 61, Methyl2-(2-(2-(2-(2-naphthamido)phenyl)-2-oxoacetamido)-6-aminohexanamido)-5-aminopentanoate dihydrochloride] | 39 | 130 | – | – | disruption of established biofilms of S. aureus [7]: 53%; disruption of established biofilms of P. aeruginosa [9]: 55% |
| CC(=O)C(CCCCNC(=N)N)NC(=O)C(=O)c1cc(Br)ccc1NC(=O)c1ccc2ccccc2c1.Cl (stereo not drawn) [Compound 56, N-(4-bromo-2-(2-((7-guanidino-2-oxoheptan-3-yl)amino)-2-oxoacetyl)phenyl)-2-naphthamide hydrochloride] | 19 | > 140 | – | – | inhibition at 250 µM [3]: 61% |
| N=C(N)NCCNC(=O)[C@H](Cc1c[nH]c2ccccc12)NC(=O)c1cc(F)ccc1NC(=O)c1ccc2ccccc2c1 [Compound 107, (S)—N-(4-Fluoro-2-((1-((2-guanidinoethyl)amino)-3-(1H-indol-3-yl)-1-oxopropan-2-yl)carbamoyl)phenyl)-2-naphthamide] | – | – | 1.8 (≈ 1.04 µg/mL) | 125 (≈ 72.5 µg/mL) | – |
| Cl.N=C(N)NCCCNC(=O)C(=O)c1ccccc1NC(=O)c1ccc2ccccc2c1 [Compound 34, N-(2-(2-((3-Guanidinopropyl)amino)-2-oxoacetyl)phenyl)-2-naphthamide hydrochloride] | > 110 | 23 | – | – | – |
| NCCNC(=O)[C@H](Cc1c[nH]c2ccccc12)NC(=O)c1cc(Br)ccc1NC(=O)c1ccc2ccccc2c1 [Compound 95, (S)—N-(2-((1-((2-Aminoethyl)amino)-3-(1H-indol-3-yl)-1-oxopropan-2-yl)carbamoyl)-4-bromophenyl)-2-naphthamide] | – | – | 3.9 (≈ 2.33 µg/mL) | > 125 | – |
| Cc1ccc(NC(=O)c2ccc3ccccc3c2)c(C(=O)C(=O)NCCCNC(=N)N)c1.Cl [Compound 38, N-(2-(2-((3-Guanidinopropyl)amino)-2-oxoacetyl)-4-methylphenyl)-2-naphthamide hydrochloride] | > 110 | 93 | – | – | – |
